In US9809532B2, “Uses of histone acetyltransferase activators” (THE TRUSTEES OF COLUMBIA UNIVERSITY IN THE CITY OF NEW YORK, priority 2011, dated 2017):

Legend:
[1] = precipitated as soon as put in H2O; cited from earlier work
[2] = molecular target: T1, Sirtuin 1 (Homo sapiens, UniProt Q96EB6); assay: Sirtuin 1 activity assay (fluorescence)
T1 sequence (Q96EB6 1-747): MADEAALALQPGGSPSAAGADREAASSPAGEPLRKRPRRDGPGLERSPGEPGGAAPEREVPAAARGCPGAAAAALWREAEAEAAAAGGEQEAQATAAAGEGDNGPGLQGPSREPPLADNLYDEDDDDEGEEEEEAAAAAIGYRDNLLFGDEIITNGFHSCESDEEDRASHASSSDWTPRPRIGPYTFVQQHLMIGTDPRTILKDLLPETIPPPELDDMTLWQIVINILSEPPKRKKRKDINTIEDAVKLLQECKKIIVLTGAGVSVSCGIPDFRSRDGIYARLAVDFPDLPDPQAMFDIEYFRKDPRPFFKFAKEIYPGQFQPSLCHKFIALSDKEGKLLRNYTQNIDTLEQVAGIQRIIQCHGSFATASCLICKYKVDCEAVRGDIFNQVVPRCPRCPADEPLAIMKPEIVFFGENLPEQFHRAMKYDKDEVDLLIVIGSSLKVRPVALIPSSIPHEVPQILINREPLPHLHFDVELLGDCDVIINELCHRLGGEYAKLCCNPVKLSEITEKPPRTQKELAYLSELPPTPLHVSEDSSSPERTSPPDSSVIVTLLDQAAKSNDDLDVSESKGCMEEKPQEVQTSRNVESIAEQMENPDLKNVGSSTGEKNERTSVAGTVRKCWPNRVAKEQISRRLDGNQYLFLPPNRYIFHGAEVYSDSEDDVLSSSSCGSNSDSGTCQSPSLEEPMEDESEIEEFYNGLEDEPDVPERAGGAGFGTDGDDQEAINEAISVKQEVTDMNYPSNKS

[3] = molecular target: T2, Sirtuin 2 (Homo sapiens, UniProt Q8IXJ6); assay: Sirtuin 2 activity assay (fluorescence); details: Sirtuin 2
T2 sequence (Q8IXJ6 1-389): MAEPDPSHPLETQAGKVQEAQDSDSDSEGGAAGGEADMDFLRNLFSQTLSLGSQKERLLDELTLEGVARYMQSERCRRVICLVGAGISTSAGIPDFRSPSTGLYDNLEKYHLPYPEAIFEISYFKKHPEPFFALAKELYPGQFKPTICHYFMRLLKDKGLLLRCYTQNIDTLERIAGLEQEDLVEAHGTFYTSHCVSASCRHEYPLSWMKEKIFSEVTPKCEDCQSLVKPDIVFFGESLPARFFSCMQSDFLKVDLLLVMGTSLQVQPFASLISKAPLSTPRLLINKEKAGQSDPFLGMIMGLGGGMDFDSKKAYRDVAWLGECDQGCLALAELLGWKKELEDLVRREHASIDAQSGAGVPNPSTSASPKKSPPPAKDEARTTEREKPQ

CCOc1ccccc1C(=O)Nc1ccc(Cl)c(C(F)(F)F)c1 [N-(4-chloro-3-trifluoromethyl-phenyl)-2-ethoxy-benzamide]
solubility in water [1]: very poorly solubile in water

O=C(CCCCCCC(=O)Nc1ccccc1)NO [SAHA, reference compound]
IC50 [2]: > 10 µM
IC50 [3]: > 10 µM
